In US20110009362A1, “SOLUBILITY-ENHANCED FORMS OF APREPITANT AND PHARMACEUTICAL COMPOSITIONS THEREOF” (DR. REDDY'S LABORATORIES LTD., priority 2008, published 2011):
In brackets after ≈: the same amount, converted by molar mass.

Assays:
[1] = cited from earlier work
[2] = Saturation solubility of aprepitant forms in water and aqueous HPβCD solutions; format: physicochemical; conditions: water, thermodynamic from solid, 1A: pH 7.0
Protocol: Crystalline Form I of aprepitant, amorphous aprepitant, or aprepitant coprecipitate was added to water and to aqueous HPβCD solutions of different concentrations, with stirring until the saturation solubility was reached. […] 1B—pH adjusted to 1.2 using hydrochloric acid. 1C—pH adjusted to 11 with 0.3% sodium bicarbonate solution. Complexes with HPβCD are prepared by adding aprepitant to aqueous solutions of HPβCD and sonicating the solutions to dissolve aprepitant, until saturation is attained.

[3] = Particle size analysis, Malvern Mastersizer; format: physicochemical
Source text: The particle size distribution of a material is generally described in terms of D10, D50, D90, and D[4,3], used routinely to describe the particle sizes or size distributions. It is expressed as volume or weight or surface percentages. Dx as used herein is defined as the size of particles where x percent of the particles have sizes less than the value given. D[4,3] is the volume mean diameter of the particles. D90 for example means that 90% of the particles are below the specified particle size. Particle sizes or particle size distributions of the pharmaceutical compositions of aprepitant of the present invention are determined using any techniques that are known to the person skilled in the art including but not limited to sieve analysis, size analysis by laser light scattering such as using a Malvern particle size analyzer (Malvern Instruments Ltd., Malvern, Worcestershire, United Kingdom) and the like. Pharmaceutical compositions of aprepitant of the present invention are generally fine, uniform and free of agglomerates.
As used herein, the term “mean particle size” refers to the distributions of aprepitant particles, including aprepitant co-precipitate particles, wherein about 50 percent of all particles measured have a particle size less than the defined mean particle size value and about 50 percent of all measurable particles measured have a particle size greater than the defined mean particle size value; this can be identified by the term “D50.” Similarly, a particle size distribution where 90 percent of the particles have sizes less than a specified size is referred to as “D90” and a distribution where 10 percent of particles have sizes less than a specified size is referred to as “D10.”
Particle size analysis was carried out using a Malvern Mastersizer.

| solubility [2] [µg/mL] | Particle Size D10 ([3]; D10) [μm] | Particle Size D50 ([3]; D50) [μm] | Particle Size D90 ([3]; D90) [μm] | Compound | solubility in acetonitrile ([1]; acetonitrile) | solubility in ethanol ([1]; ethanol) | solubility in isopropyl alcohol ([1]; isopropyl alcohol) | solubility in water ([1]; water) |
| --- | --- | --- | --- | --- | --- | --- | --- | --- |
|  |  |  |  | C[C@@H](O[C@H]1OCCN(Cc2n[nH]c(=O)[nH]2)[C@H]1c1ccc(F)cc1)c1cc(C(F)(F)F)cc(C(F)(F)F)c1 [Aprepitant, 5-[[(2R,3S)-2-[(1R)-1-[3,5-bis(trifluoromethyl)phenyl]ethoxy]-3-(4-fluorophenyl)-4-morpholinyl]methyl]-1,2-dihydro-3H-1,2,4-triazol-3-one] | slightly soluble | sparingly soluble | sparingly soluble | practically insoluble |
| 0.5 (≈ 0.936 µM) | 17.1 | 29.2 | 52.0 | C[C@@H](O[C@H]1OCCN(Cc2n[nH]c(=O)[nH]2)[C@H]1c1ccc(F)cc1)c1cc(C(F)(F)F)cc(C(F)(F)F)c1 [Crystalline aprepitant Form I] |  |  |  |  |
